Measurements: patent publication US6248768A, “Benzimidazole derivatives and pharmacologically acceptable salts thereof” (Taiho Pharmaceutical Co., Ltd., priority 1997, dated 2001)

Experiments:
[1] = test system: Airway reactivity acceleration (antigen-induced); test: Antigen-Induced Airway Reactivity Acceleration Inhibitory Activity in Mice [Test on Chronic Inflammation]; type: in vivo, BALB/c mice; conditions: oral, once a day for 10 days, acetylcholine 30 μg/animal i.v.
Protocol: Antigen-Induced Airway Reactivity Acceleration Inhibitory Activity in Mice [Test on Chronic Inflammation]
The model for this test was prepared out in accordance with the method of Nagai et al. (Life Sciences, Vol. 54, pp. 471-475, 1994). Each of BALB/c mice was immunized by the intraperitoneal injection of 1 μg of egg albumin which had been adsorbed to 1 mg of ALUM. After 14 days of the immunization, each animal was exposed to 1% egg albumin solution using an ultrasonic nebulizer, and this treatment was repeated three times at 3 day intervals. After 24 hours of the final exposure, the airway contraction reaction against intravenously injected acetylcholine (30 μg/animal) was measured as overflow volume (×0.01 ml) by the modified method of Konzett and Rossler under pentobarbital anesthesia. Each of the drugs to be tested (compounds 1 and 2) was suspended in 0.5% HPMC solution and orally administered once a day for a total of 10 days starting from the day before the antigen exposure until the day of final exposure. Accelerated quantity of the airway contraction reaction caused by the antigen exposure was calculated by subtracting the contraction reaction against intravenously injected acetylcholine in the case of the same treatment of normal mice, and the airway reactivity acceleration inhibition ratio (%) of the drugs to be tested was calculated based on the solvent-administered (control) group.

PDE(IV) = test: Phosphodiesterase IV (PDE (IV)) Inhibitory Activity; type: biochemical; conditions: rat brain PDE(IV); 3H-cAMP 1 μM; 37° C., 10 minutes; read-out: PDE(IV) inhibition IC50
Protocol: Phosphodiesterase IV (PDE (IV)) Inhibitory Activity
Purification of PDE (IV) and measurement of its activity were carried out by partially modifying the method of Saeki et al. (Biochem. Pharmacol., Vol. 46, 833-839, 1993). That is, PDE(IV) was purified by centrifuging rat brain homogenate at 105,000×g, applying the resulting supernatant to a Q-Sepharose column and then eluting the protein with a density gradient of 0 to 0.5 M NaCl.
Activity of PDE(IV) was measured by the following two step procedure. Using 3H-cAMP (1 μM in final concentration) as the substrate, the reaction was carried out at 37° C. for 10 minutes in a reaction solution containing tris(hydroxyl)aminomethane (50 mM, pH B8.0), EGTA (0.1 mM) and MgCl2 (0.1 mM) and then the reaction was stopped by incubating the reaction solution at 95° C. for 5 minutes. The thus formed 5'-AMP was hydrolyzed with 5'-nucleotidase, and AG1 X-8 resin was added thereto to effect adsorption of unreacted CAMP. After centrifugation, 3H-adenosinewas counted using a scintillation counter.

[2] = test system: Mouse ear edema reaction (egg albumin-induced); test: Ear Edema Reaction Inhibitory Activity in Mice; type: in vivo, BALB/c mice; conditions: oral, 1 hour before induction, ear thickness 1 hour after induction
Protocol: Ear Edema Reaction Inhibitory Activity in Mice [Test Inflammation]
This test was test was carried out in accordance with the method of Sawada et al. (Clin. Exp. Allergy, Vol. 27, pp. 225-231, 1996). Each of BALB/c mice was immunized by the intraperitoneal injection of 1 μg of egg albumin which had been adsorbed to 1 mg of ALUM. After 14 days of the immunization, ear edema reaction was induced by intracutaneous injection of 1 μg of egg albumin into mouse earlobe. Ear edema (×10^2 mm) was calculated by measuring thickness of the ear before and 1 hour after the induction with a dial thickness gage (Peacok). Each of the drugs to be tested (compounds 1 and 2) was suspended in 0.5% hydropropylmethylcellulose (HPMC) solution and orally administered 1 hour before the reaction induction. Ear edema caused by the antigen was calculated by subtracting ear edema after respective time of induction in the case of the same treatment of normal mice, and the ear edema inhibition ratio (%) of the drugs to be tested was calculated based on the solvent-administered (control) group.

[3] = test system: IL-4 production by CD4^+ T cells; test: Interleukin-4 (IL-4) Production Inhibitory Activity; type: cell-based; conditions: 24 h; mouse spleen CD4^+ T cells; IL-4 in supernatant by ELISA after 1 day; read-out: IL-4 production inhibition IC50
Protocol: Interleukin-4 (IL-4) Production Inhibitory Activity
This test was carried out in accordance with the method of Shelby et al. (J. Allergy Clin. Immunol., Vol. 100, No. 4, 511-519 (1997)). That is, CD4^+ T cells were purified from mouse spleen cells and suspended in 10% FCS-containing RPMI 1640 culture medium, and the cell suspension was inoculated into wells of a 24 well culture plate, which had been coated with anti-rat IgG, at a density of 3×10^6 cells per well. Anti-mouse CD3 antibody and anti-mouse CD28 antibody were added thereto, and the cells were cultured at 37° C. for 3 days in an atmosphere of 5% CO2. The thus grown cells were recovered, washed three times with HBSS (Hank's balanced salt solution) and then suspended in 10% FCS-containing RPMI 1640 culture medium. The cell suspension was inoculated into wells of a 24 well culture plate at a density of 1×10^6 cells per well, mixed with IL-2 and cultured for additional 3 days. The resulting cells were recovered, washed three times with HBSS and then suspended in 10% FCS-containing RPMI 1640 culture medium. The cell suspension was inoculated into wells of a 24 well culture plate, which had been coated with anti-rat IgG, at a density of 2×10^6 cells per well, anti-mouse CD3 antibody and anti-mouse CD28 antibody were added thereto, and the cells were again cultured for 1 day. The culture supernatant was recovered from each well to measure the amount of produced IL-4 by ELISA. Each drug to be tested was treated at the time of the second addition of anti-mouse CD3 antibody and anti-mouse CD28 antibody to calculate its inhibition percentage based on the control IL-4 production by the addition of the solvent alone, and IC50 (50% inhibition concentration) of each drug to be tested was calculated based on the regression line.

IL-4 production = conditions: in words, background art; cited from earlier work

| IC50 (PDE(IV)) | IC50 [3] | Structure (SMILES) | Mouse ear edema reaction inhibition ([2]; 30 mg/kg) | Airway reactivity acceleration inhibition ([1]; 30 mg/kg) | further results |
| --- | --- | --- | --- | --- | --- |
| 20 nM | 4.3 µM | COc1ccc(-c2nc3ccc(-n4cncn4)cc3[nH]2)cc1OC(C)C [Compound 1, 2-(3-isopropoxy-4-methoxyphenyl)-5-(1,2,4-triazol-1-yl)benzimidazole] | 60% | – | Airway reactivity acceleration inhibition ([1]; 10 mg/kg): 58% |
| – | – | COc1ccc(-c2nc3ccc(-n4cncn4)cc3[nH]2)cc1OC1CCCC1 [Compound 2, 2-(3-cyclopentyloxy-4-methoxyphenyl)-5-(1,2,4-triazol-1-yl)benzimidazole] | 78% | 47% | – |
| 1600 nM | 5.5 µM | COc1ccc(-c2nc3cc(-n4cncn4)ccc3[nH]2)cc1OCC1CC1 [Compound 11] | – | – | – |
| 540 nM | 6.1 µM | COc1ccc(-c2nc3ccc(-n4cncn4)cc3[nH]2)cc1OC1C=CCCC1 (stereo not drawn) [Compound 14, 2-[3-(2-cyclohexenyloxy)-4-methoxyphenyl]-5-(1,2,4-triazol-1-yl)benzimidazole] | – | – | – |
| 51 nM | 5.1 µM | COc1ccc(-c2nc3cc(-n4cncn4)ccc3[nH]2)cc1OC/C=C/c1ccccc1 [Compound 18] | – | – | – |
| 730 nM | 2.8 µM | COc1ccc(-c2nc3cc(-n4cncn4)ccc3[nH]2)cc1OC1C=CCCCC1 (stereo not drawn) [Compound 25] | – | – | – |
| – | – | COc1ccc(-c2nc3cc(-n4cncn4)ccc3[nH]2)c(OC)c1 [Control compound 2] | 17% | 30% | – |
| – | – | COc1ccc(-c2nc3cc(C(=O)O)ccc3[nH]2)cc1OC1CCCC1 [Control compound 4] | – | -17% | Mouse ear edema reaction inhibition ([2]; 100 mg/kg): 0% |
| – | – | COc1ccc(-c2nc3cc(C(=O)O)ccc3[nH]2)cc1OC1Cc2ccccc2C1 [Control compound 5] | – | -3% | Mouse ear edema reaction inhibition ([2]; 100 mg/kg): 0% |
| – | – | COc1ccc(/C(C)=N/OC(N)=O)cc1OC1CCCC1 [PDA-641] | – | – | IL-4 production inhibitory activity (IL-4 production): weak |
